According to patent US20180055848A1 (Board of Supervisors of Louisiana State University and …, priority 2015, published 2018):
Where two headings read alike, the source gives them in different places.

Assays:
[1] = test system: Differentiated human adipocytes; assay: Lipolysis assay (glycerol release) in cultured adipocytes; type: cell-based; details: 3 hours
Procedure: Primary human adipose tissue was obtained from patients undergoing liposuction, paniculectomy, or bariatric surgery. Tissue was processed by […]) to isolate and cryopreserve pre-adipocytes. At the time of the assay, pre-adipocytes were differentiated into adipocytes. Differentiated human adipocytes adherent to the bottom of a 96-well plate were washed and treated with media containing one of ten treatments: […] After incubation, a 50 μL aliquot was removed and combined with 50 μL glycerol reagent, in a colorimetric assay based on the amount of glycerol released during incubation with test compounds. Absorbance was measured at 540 nm, and results were calibrated against a standard curve. Eight replicates were conducted for each treatment.

[2] = test system: Male Sprague-Dawley rats fed a high fat diet; assay: Example 5: weight gain, body composition and metabolic chamber in rats, 4 weeks; type: in vivo, rat
Procedure: (§1) The Pennington Biomedical Research Center Animal Care and Use Committee approved the animal protocols. […] Male Sprague-Dawley rats (Harlan, Inc., Indianapolis, Ind., 8-9 weeks old) were fed a high fat diet (60% calories from fat, D12492, Research Diets, New Brunswick, N.J.) for 4 weeks. […] All treatments were administered by intraperitoneal injection twice a day. […] Body composition was measured by Nuclear Magnetic Resonance (Minispec LF90 NMR analyzer, Bruker Optics, Billerica, Mass.). Weight and food intake were recorded every 2 days. […] Total activity was measured with a Phenomaster system (TSE Systems, Chesterfield Mo.). Chambers had evenly spaced infrared beam grids along X, Y, and Z axes; the system sensed and quantified total beam breaks caused by movements of the animal.

[3] = test system: lean adults and post-obese adults; details: 100 mg of caffeine, cited from earlier work
healthy adults = assay: Metabolic rate in humans (indirect calorimetry, crossover study)
[4] = test system: Male Sprague-Dawley rats fed a high fat diet; assay: Example 6: lean and fat mass in rats, 8 weeks; type: in vivo, rat; details: i.p. twice a day, albuterol 0.125 mg/kg, caffeine 3.12 mg/kg
Procedure: as §1

adults = details: after 6 months; cited from earlier work

## Cn1c(=O)c2c(ncn2C)n(C)c1=O [caffeine]
[1]; caffeine 10 μg/mL, p=0.83
  increase in lipolysis over buffer-treated cells: exception
[2]; 4 weeks, i.p. twice a day, p=0.006
  fat accretion: reduced fat accretion
[3]
  increase in resting metabolic rate: 3-4%
[3]; lean adults
  increase in resting metabolic rate: 150 kcal/day
[3]; post-obese adults
  increase in resting metabolic rate: 80 kcal/day
Healthy adults; 100 mg caffeine alone, oral
  increased energy expenditure (the delta): 37 kcal
Healthy adults; all dosages, single oral dose, p<0.02 to p<0.001, n=8
  energy expenditure over the baseline metabolic rate: significant increases

## CC(C)NCC(O)c1ccc(O)c(O)c1 (stereo not shown) [isoproterenol, Isoproterenol]
[1]; Isoproterenol 1 μM positive control, p<0.001
  increase in lipolysis: ~90%

## CC(C)(C)NCC(O)c1ccc(O)c(CO)c1 (stereo not shown) [albuterol, albuterol (salbutamol)]
[2]; 4 weeks, i.p. twice a day, albuterol 0.125 mg/kg, caffeine 3.12 mg/kg, p<0.001
  additional lean mass gained compared to the saline control group: 16.6 g
[2]; 4 weeks, i.p. twice a day, albuterol 0.125 mg/kg, caffeine 3.12 mg/kg, p=0.04
  weight gain compared to the saline control group: gained significantly more weight
[2]; albuterol 0.125 mg/kg i.p. twice a day, p=0.07
  energy expenditure during the dark phase: trend towards increased energy expenditure
[4]; p=0.004, n=30
  fat mass gained, week 8: 20.1 g
[4]; p=0.03, n=30
  lean mass gained by week 8: 60.3 g

## CCCCCCCCCCC[C@@H](C[C@@H]1OC(=O)[C@H]1CCCCCC)OC(=O)[C@H](CC(C)C)NC=O [Orlistat]
adults
  weight loss: about 2.8%
  weight loss attributable to fat loss: 2.1%
  weight loss attributable to reduction in lean tissue: 0.7%
